Legend:
cancer cell lines = experiment: XTT antiproliferative assay, panel of cancer cell lines (FIG. 3); type: cell-based
Description: FIG. 3 is a graphical representation of the effect of LOR-253 on proliferation of a number of cancer cell lines in vitro. Cells of various cancer cell lines were incubated with LOR-253 as described in the Examples, and the […] concentrations of various cell lines for 50% of maximal inhibition of cell proliferation (GI50) by LOR-253 were determined and shown in the figure.
Antiproliferative activity of LOR-253 was determined by XTT assay as follows. Adherent cells (2×10^3/well) in 100 μL of growth medium were seeded in 96-well cell culture plates and incubated overnight at 37° C. The medium was removed and replaced with a total volume of 100 μL growth medium containing LOR-253 (or 0.1% DMSO vehicle control), as described in the respective experiments. […] After incubation of the cells at 37° C. for 5 days, cell viability was quantitated with the use of sodium 3′-[1-(phenylamino-carbonyl)-3,4-tetrazolium}-bis(4-methoxy-6-nitro)benzene sulfonic acid hydrate (XTT) colorimetric assay (Roche). […] The plates were further incubated at 37° C. for 4 h, and the absorbance of each well was measured at 490 nm with a multiwell spectrophotometer (Bio-Tek Instruments Inc.). The data were adjusted relative to the blank and expressed as a percentage of cell growth compared with the vehicle control. […]

THP1 = experiment: Caspase 3 activity, EnzChek Caspase-3 Assay Kit; type: cell-based; conditions: 0.5 μM, 48 hours
Description: (§1) THP1 and HL-60 cells were treated with DMSO (vehicle control) or 0.5 μM LOR-253 for 48 hours. Cell lysates were collected using a 1% Triton-X100 lysis. Caspase 3 activity was measured using EnzChek Caspase-3 Assay Kit #1 (Life Technologies) with 5 μg of cell lysastes according to manufacturer's protocol.

HL-60 = experiment: Caspase 3 activity, EnzChek Caspase-3 Assay Kit; type: cell-based; conditions: 0.5 μM, 48 hours
Description: as §1

hERG = hERG (Homo sapiens, UniProt Q12809); experiment: hERG tail current density
CYP450 enzymes = experiment: CYP450 enzyme inhibition; type: in vitro ADME
KLF4 protein = experiment: Pharmacodynamic response, KLF4 protein level in tumors; type: in vivo; conditions: mice; 1, 5 and 15 mg/kg for 5 consecutive days; 16 hours after last dose
Description: To study the pharmacodynamic (PD) responses, mice were treated for 5 consecutive days with 1, 5, and 15 mg/kg LOR-253. Tumors were measured 16 hours after the last dose, and the KLF-4 protein level was measured.

[1] = GLP blood compatibility studies
Toledo = experiment: XTT antiproliferative assay; type: cell-based; conditions: Homo sapiens, 120 h, Non-Hodgkin's Lymphoma, 5 days incubation
Description: (§2) Antiproliferative activity of LOR-253 was determined by XTT assay as follows. Adherent cells (2×10^3/well) in 100 μL of growth medium were seeded in 96-well cell culture plates and incubated overnight at 37° C. The medium was removed and replaced with a total volume of 100 μL growth medium containing LOR-253 (or 0.1% DMSO vehicle control), as described in the respective experiments. Suspension cells were plated (4-6×10^3/well) in 50 μL growth medium, and 50 μL growth medium containing LOR-253 (or 0.1% DMSO vehicle control) was added to each well. After incubation of the cells at 37° C. for 5 days, cell viability was quantitated with the use of sodium 3′-[1-(phenylamino-carbonyl)-3,4-tetrazolium}-bis(4-methoxy-6-nitro)benzene sulfonic acid hydrate (XTT) colorimetric assay (Roche). XTT labeling reagent (1 mg/mL) was mixed with electron-coupling reagent, following the manufacturer's instructions, and 50 μL of the mixture was added directly to the cells. The plates were further incubated at 37° C. for 4 h, and the absorbance of each well was measured at 490 nm with a multiwell spectrophotometer (Bio-Tek Instruments Inc.). The data were adjusted relative to the blank and expressed as a percentage of cell growth compared with the vehicle control. (Ref. Huesca et al., Mol Cancer Ther. 2009. 8:2586-96; Lorus publication on LOR-133)

EOL-1 = experiment: XTT antiproliferative assay; type: cell-based; conditions: Homo sapiens, EOL1, 120 h; EOL-1, Acute myeloid leukemia; 5 days incubation
Description: as §2

MM.1R = experiment: XTT antiproliferative assay; type: cell-based; conditions: 120 h, Multiple myeloma, 5 days incubation
Description: as §2

MV-4-11 = experiment: XTT antiproliferative assay; type: cell-based; conditions: Homo sapiens, MV4-11, 120 h; MV-4-11, Acute myeloid leukemia; 5 days incubation
Description: as §2

THP-1 = experiment: XTT antiproliferative assay; type: cell-based; conditions: Homo sapiens, 120 h; THP-1, Acute myeloid leukemia; 5 days incubation
Description: as §2

Ramos = experiment: XTT antiproliferative assay; type: cell-based; conditions: Homo sapiens, 120 h, Non-Hodgkin's Lymphoma, 5 days incubation
Description: as §2

KG-1 = experiment: XTT antiproliferative assay; type: cell-based; conditions: Homo sapiens, 120 h; KG-1, Acute myeloid leukemia; 5 days incubation
Description: as §2

THP1 cells = experiment: BAX/BCL2 expression, quantitative RT-PCR; type: cell-based, human; conditions: 0.5 μM, 48 hours
Description: THP1 cells were treated with DMSO (vehicle control) or 0.5 μM LOR-253 for 48 hours. Total RNA was extracted using the TRIzol Plus RNA Purification kit (Ambion, Life Technologies), according to the manufacturer's instructions. First strand cDNA was synthesized from 1-2 ug total RNA using random hexamer primers (Invitrogen) and the SuperScript II Reverse Transcriptase kit (Invitrogen). Quantitative RT-PCR was performed in the ABI Prism 7000 Sequence Detection System using cDNAs and human TaqMan Gene Expression Assay primer/probe sets for BCL2-associated X protein (BAX), B-cell CLL/Lymphoma 2 (BCL2) and the ABI TaqMan Universal PCR master mix protocol. Gene expression was normalized with β-actin gene expression in the same sample, and fold changes in BAX or BCL2 were expressed relative to the corresponding expression level in the DMSO treated samples using the comparative CT method.

[2] = Repeat-dose toxicity study; type: in vivo; conditions: dogs, highest dose tested
THP-1 cells = experiment: FITC-Annexin V / propidium iodide flow cytometry (apoptosis); type: cell-based; conditions: 16 hours
Description: THP-1 cells were treated with DMSO, 0.5 or 1 uM of LOR-253 for 16 hours. Cells were washed twice with cold PBS and resuspended Annexin V binding buffer. 1×10^5 cells in 100 μL were stained with FITC-Annexin V and propidium iodide, and incubated for 15 minutes at room temperature. After staining, 400 ul of binding buffer was added and the cells were kept on ice until analyzed on a BD FACSCanto flow cytometer.

Chain of hERG (Q12809 whole entry): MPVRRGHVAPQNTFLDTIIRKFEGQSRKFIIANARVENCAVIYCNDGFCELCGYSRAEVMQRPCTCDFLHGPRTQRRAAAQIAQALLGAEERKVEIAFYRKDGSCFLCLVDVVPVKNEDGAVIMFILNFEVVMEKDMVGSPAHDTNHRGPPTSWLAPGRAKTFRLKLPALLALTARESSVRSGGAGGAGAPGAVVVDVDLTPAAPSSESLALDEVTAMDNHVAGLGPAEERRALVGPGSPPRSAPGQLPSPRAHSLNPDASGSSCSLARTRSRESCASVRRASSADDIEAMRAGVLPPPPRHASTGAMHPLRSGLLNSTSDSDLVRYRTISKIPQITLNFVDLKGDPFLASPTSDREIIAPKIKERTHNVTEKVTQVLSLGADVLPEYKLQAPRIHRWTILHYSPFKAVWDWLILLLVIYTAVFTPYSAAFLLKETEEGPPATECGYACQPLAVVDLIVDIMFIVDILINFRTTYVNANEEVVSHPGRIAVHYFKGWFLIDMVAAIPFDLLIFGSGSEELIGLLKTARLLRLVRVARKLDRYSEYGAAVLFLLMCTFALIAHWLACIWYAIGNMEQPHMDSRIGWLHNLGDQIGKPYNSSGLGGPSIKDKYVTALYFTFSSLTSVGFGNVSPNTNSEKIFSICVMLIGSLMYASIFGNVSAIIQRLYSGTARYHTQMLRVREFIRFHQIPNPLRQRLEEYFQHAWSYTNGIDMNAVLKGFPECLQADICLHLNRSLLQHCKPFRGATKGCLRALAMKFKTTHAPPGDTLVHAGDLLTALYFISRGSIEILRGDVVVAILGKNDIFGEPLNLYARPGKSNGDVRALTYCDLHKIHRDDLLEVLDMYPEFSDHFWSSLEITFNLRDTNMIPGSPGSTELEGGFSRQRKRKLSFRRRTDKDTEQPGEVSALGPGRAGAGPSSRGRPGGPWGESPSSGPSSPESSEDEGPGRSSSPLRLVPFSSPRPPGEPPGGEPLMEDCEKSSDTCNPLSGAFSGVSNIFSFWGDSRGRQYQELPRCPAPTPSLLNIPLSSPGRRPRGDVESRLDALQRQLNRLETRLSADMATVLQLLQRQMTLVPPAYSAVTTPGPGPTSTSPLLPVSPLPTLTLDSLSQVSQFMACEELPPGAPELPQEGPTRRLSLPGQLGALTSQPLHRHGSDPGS

In the case of Cc1[nH]c2ccc(F)cc2c1-c1nc2c3cccnc3c3ncccc3c2[nH]1 [LOR-253], the “sensitivity of cell lines to LOR-253” value (cancer cell lines; cell lines of lung, bladder, colon, prostate cancer, melanoma and breast cancer) is reported as “less sensitive”, the “sensitivity of cell lines to LOR-253” value (cancer cell lines; leukemia/lymphoma incl. AML cell lines (HL-60, MV 411, THP-1, HEL92.1.7, CCRF-CEM, MOLT-4, Jurkat, K-562, Ramos, Raji)) is reported as “most sensitive” and the “Caspase 3 activity” value (THP1) is reported as “elevated Caspase 3 activity”. For the same compound, the “Caspase 3 activity” value (HL-60) was “elevated Caspase 3 activity”, the “inhibition of hERG tail current density” value (hERG) was “no significant inhibition” and the “inhibition of CYP450 enzymes” value (CYP450 enzymes) was “no significant inhibition”. For the same compound, the “average KLF4 protein levels in tumors” value (KLF4 protein) was “increased in a dose-dependent manner”, the “blood compatibility of IV formulation” value [1] was “confirmed the suitability of IV formulation” and the IC50 (Toledo) was 77 nM. It also gave an IC50 (EOL-1) of 58 nM, an IC50 (MM.1R) of 150 nM and an IC50 (MV-4-11) of 69 nM. For the same compound, the IC50 (THP-1) was 77 nM, the IC50 (Ramos) was 125 nM and the IC50 (KG-1) was 33 nM. For the same compound, the “BAX expression (fold change vs DMSO)” value (THP1 cells) was “Elevation of BAX”, the “BCL2 expression (fold change vs DMSO)” value (THP1 cells) was “repression of BCL2” and the cardiovascular effects [2] was “no treatment-related cardiovascular effects”. The “Annexin V staining” value (THP-1 cells; 0.5 or 1 uM) was “elevated Annexin V staining” and the “early apoptotic population (Q3: Annexin V+/PI−)” value (THP-1 cells; increasing concentration (0.5 to 1 uM)) was “increase in the early apoptotic population”.

From patent US20150104392A1, “COMPOSITIONS, BIOMARKERS AND THEIR USE IN THE TREATMENT OF CANCER” (Aptose Biosciences Inc., priority 2013, published 2015)
